From ChEMBL document CHEMBL5257115, “Synthesis of novel ciprofloxacin-avibactam conjugates for the development of second-generation non-β-lactam-β-lactamase inhibitors” (Bioorg Med Chem Lett, 2023)
pIC50: −log10 of the molar value. ≈ marks a conversion by molar mass, not a printed value. Calls of active or inactive are those of the source. The rule behind the calls is not given here.

Columns and labels:
Klebsiella pneumoniae [1] = assay: Antibacterial activity against multidrug resistant Klebsiella pneumoniae ATCC 2146 assessed as bacterial growth inhibition; assay type: functional
Escherichia coli [2] = assay: Synergistic antibacterial activity against multidrug resistant Escherichia coli ATCC 25922 assessed as bacterial growth inhibition in presence of ceftazidime; assay type: functional, organism-based
Klebsiella pneumoniae [3] = assay: Synergistic antibacterial activity against multidrug resistant Klebsiella pneumoniae ATCC 2146 assessed as bacterial growth inhibition in presence of ceftazidime; assay type: functional, organism-based
[4] = Hemolytic activity in human RBC assessed as hemolysis at 512 ug/ml; assay type: toxicity, cell-based, Erythrocyte; settings: red blood cells (RBC), at 512 µg/mL, read-out: Activity
Staphylococcus aureus [5] = assay: Antibacterial activity against multidrug resistant Staphylococcus aureus ATCC 25923 assessed as bacterial growth inhibition; assay type: functional
Acinetobacter baumannii = assay: Antibacterial activity against multidrug resistant Acinetobacter baumannii ATCC 2803 assessed as bacterial growth inhibition; assay type: functional
Escherichia coli [6] = assay: Antibacterial activity against multidrug resistant Escherichia coli ATCC 2774 assessed as bacterial growth inhibition; assay type: functional
Escherichia coli [7] = assay: Synergistic antibacterial activity against multidrug resistant Escherichia coli ATCC 2774 assessed as bacterial growth inhibition in presence of ceftazidime; assay type: functional, organism-based
Staphylococcus aureus [8] = assay: Antibacterial activity against multidrug resistant Staphylococcus aureus ATCC 43300 assessed as bacterial growth inhibition; assay type: functional
Klebsiella pneumoniae [9] = assay: Synergistic antibacterial activity against multidrug resistant Klebsiella pneumoniae ATCC 2782 assessed as bacterial growth inhibition in presence of ceftazidime; assay type: functional, organism-based
Escherichia coli [10] = assay: Antibacterial activity against multidrug resistant Escherichia coli ATCC 25922 assessed as bacterial growth inhibition; assay type: functional
[11] = target: T1, Metallo-beta-lactamase type 2 (Bacillus cereus, UniProt P14488); assay: Inhibition of Bacillus cereus beta-lactamase II
T1 sequence (P14488 whole entry): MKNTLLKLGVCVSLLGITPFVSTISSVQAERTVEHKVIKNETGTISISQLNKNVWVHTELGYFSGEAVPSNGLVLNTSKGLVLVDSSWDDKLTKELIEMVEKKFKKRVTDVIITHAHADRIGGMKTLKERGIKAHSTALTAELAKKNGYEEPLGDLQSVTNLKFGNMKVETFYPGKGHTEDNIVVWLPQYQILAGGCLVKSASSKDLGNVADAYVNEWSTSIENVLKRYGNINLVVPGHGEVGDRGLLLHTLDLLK

Klebsiella pneumoniae [12] = assay: Antibacterial activity against multidrug resistant Klebsiella pneumoniae ATCC 2782 assessed as bacterial growth inhibition; assay type: functional

| Structure (SMILES) | MIC (Klebsiella pneumoniae [1]) [µg/mL] | Activity (Escherichia coli [2]) | Activity (Klebsiella pneumoniae [3]) | hemolysis at 512 ug/ml [4] [%] | MIC (Staphylococcus aureus [5]) [µg/mL] | MIC (Acinetobacter baumannii) [µg/mL] | MIC (Escherichia coli [6]) [µg/mL] | Activity (Escherichia coli [7]) | MIC (Staphylococcus aureus [8]) [µg/mL] | Activity (Klebsiella pneumoniae [9]) | MIC (Escherichia coli [10]) [µg/mL] | pIC50 [11] | MIC (Klebsiella pneumoniae [12]) [µg/mL] |
| --- | --- | --- | --- | --- | --- | --- | --- | --- | --- | --- | --- | --- | --- |
| O=C(NNC(=O)[C@@H]1CC[C@@H]2CN1C(=O)N2OS(=O)(=O)O)c1cn(C2CC2)c2cc(N3CCNCC3)c(F)cc2c1=O | > 128 | Active | Active | 4.27 | 8 (≈ 13.5 µM) | > 128 | > 128 | Active | 128 (≈ 216 µM) | Active | 16 (≈ 27 µM) | 8.77 | > 128 |
| CC[C@H](C)C(NC(=O)[C@@H]1CC[C@@H]2CN1C(=O)N2OS(=O)(=O)O)C(=O)NNC(=O)c1cn(C2CC2)c2cc(N3CCNCC3)c(F)cc2c1=O (stereo partly drawn) | > 128 |  |  |  | > 256 | > 128 | > 128 |  | > 128 |  | 32 (≈ 45.3 µM) |  | > 128 |
| CC(C)[C@H](NC(=O)[C@@H]1CC[C@@H]2CN1C(=O)N2OS(=O)(=O)O)C(=O)NNC(=O)c1cn(C2CC2)c2cc(N3CCNCC3)c(F)cc2c1=O | > 128 | Active | Active | 5.1 | 128 (≈ 185 µM) | > 128 | > 128 | Active | > 128 | Active | 16 (≈ 23.1 µM) | 7.24 | > 128 |
| O=C(O)c1cn(C2CC2)c2cc(N3CCNCC3)c(F)cc2c1=O [CIPROFLOXACIN] | > 128 |  |  |  |  | > 128 | 128 (≈ 386 µM) |  | 0.5 (≈ 1.51 µM) |  |  |  | > 128 |
| O=C(CCCCCNC(=O)[C@@H]1CC[C@@H]2CN1C(=O)N2OS(=O)(=O)O)NNC(=O)c1cn(C2CC2)c2cc(N3CCNCC3)c(F)cc2c1=O | > 64 |  |  |  | > 64 | > 64 | > 32 |  | > 64 |  | 4 (≈ 5.66 µM) |  | > 32 |
| O=C(NNC(=O)[C@H](Cc1ccccc1)NC(=O)[C@@H]1CC[C@@H]2CN1C(=O)N2OS(=O)(=O)O)c1cn(C2CC2)c2cc(N3CCNCC3)c(F)cc2c1=O | > 128 |  |  |  | 8 (≈ 10.8 µM) | > 128 | > 128 |  | > 128 |  | 16 (≈ 21.6 µM) |  | > 128 |
| O=C(NNC(=O)[C@@H]1CCCN1C(=O)[C@@H]1CC[C@@H]2CN1C(=O)N2OS(=O)(=O)O)c1cn(C2CC2)c2cc(N3CCNCC3)c(F)cc2c1=O | > 128 |  |  |  | 128 (≈ 185 µM) | > 128 | > 128 |  | > 128 |  | 8 (≈ 11.6 µM) |  | > 128 |
| NC(=O)[C@@H]1CC[C@@H]2CN1C(=O)N2OS(=O)(=O)O [AVIBACTAM] | 8 (≈ 30.2 µM) | Active | Active | 3.87 | 256 (≈ 965 µM) | > 128 | 8 (≈ 30.2 µM) | Active | > 128 | Active | 8 (≈ 30.2 µM) | 6.85 | 32 (≈ 121 µM) |
| CC(C)(C)OC(=O)N1CCN(c2cc3c(cc2F)c(=O)c(C(=O)NNC(=O)[C@@H]2CC[C@@H]4CN2C(=O)N4OS(=O)(=O)[O-])cn3C2CC2)CC1.CCCC[N+](CCCC)(CCCC)CCCC | > 128 |  |  |  | 8 | > 128 | > 128 |  | > 128 |  | > 256 |  | > 128 |
| O=C(CCCNC(=O)[C@@H]1CC[C@@H]2CN1C(=O)N2OS(=O)(=O)O)NNC(=O)c1cn(C2CC2)c2cc(N3CCNCC3)c(F)cc2c1=O | > 64 |  |  |  | > 64 | > 64 | > 32 |  | > 64 |  | 8 (≈ 11.8 µM) |  | > 32 |
| C[C@H](NC(=O)[C@@H]1CC[C@@H]2CN1C(=O)N2OS(=O)(=O)O)C(=O)NNC(=O)c1cn(C2CC2)c2cc(N3CCNCC3)c(F)cc2c1=O | > 128 |  |  |  | 16 (≈ 24.1 µM) | > 128 | > 128 |  | 32 (≈ 48.1 µM) |  | 1 (≈ 1.5 µM) |  | > 128 |
| COc1ccc(C[C@H](NC(=O)[C@@H]2CC[C@@H]3CN2C(=O)N3OS(=O)(=O)O)C(=O)NNC(=O)c2cn(C3CC3)c3cc(N4CCNCC4)c(F)cc3c2=O)cc1OC | > 64 |  |  |  | > 64 | > 64 | > 64 |  | > 64 |  | 32 (≈ 40 µM) |  | > 64 |
| O=C(CNC(=O)[C@@H]1CC[C@@H]2CN1C(=O)N2OS(=O)(=O)O)NNC(=O)c1cn(C2CC2)c2cc(N3CCNCC3)c(F)cc2c1=O | > 128 | Active | Active | 5.74 | > 256 | > 128 | > 128 | Active | > 128 | Active | 8 (≈ 12.3 µM) | 6.65 | > 128 |
